We go through 7 compounds from patent US9249125B2, “Pyrazole derivatives as p38 MAP inhibitors” (RESPIVERT LIMITED, priority 2012, dated 2016).

Series [1] has as its system Poly I:C-induced ICAM-1 expression in BEAS2B cells. As to the kind of experiment: Poly I:C-induced ICAM-1 expression in BEAS2B cells. The class given is cell-based. To be noted: Homo sapiens, BEAS-2B, read-out: Poly IC induced ICAM1 in BEAS2B IC50. The procedure, abridged: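 BEAS2B human bronchial epithelial cells pre-incubated with compound for 2 hr, then transfected with 1 μg/mL poly I:C plus Oligofectamine. At 18 hr, surface ICAM-1 measured by cell-based ELISA (HRP, OD450–655). Signal corrected for cell number by crystal violet OD595.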

Series [2] addresses cSrc (Homo sapiens (Human), UniProt P12931). As to the kind of experiment: c-Src enzyme inhibition (FRET, Z-LYTE). The class given is biochemical. An outline of the steps: (§1)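 Z-LYTE FRET kinase assay: enzyme (3000 or 2000 ng/mL stock, respectively) preincubated 2 h at RT with compound (4–0.004 μg/mL stocks), then FRET peptide plus ATP (800 μM stock for c-Src, 60 μM for Syk) added for 1 h. Protease development 1 h; phosphorylation from coumarin/fluorescein emission ratio.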

Series [3] concerns the target p38 MAPKα (Homo sapiens (Human), UniProt Q16539). As to the kind of experiment: p38 MAPKα enzyme inhibition (FRET, Z-LYTE). The class given is biochemical.
Series [4] deals with Syk (Homo sapiens (Human), UniProt P43405). The series is described as follows: Syk enzyme inhibition (FRET, Z-LYTE). In kind it is biochemical. The procedure, abridged:
as §1

Series [5] deals with GSK3α (Homo sapiens (Human), UniProt P49840). The series is described as follows: GSK 3α enzyme inhibition (FRET, Z-LYTE). In kind it is biochemical. An outline of the steps: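 GSK3α (500 ng/mL stock) was preincubated 2 hr at RT with compound (4 to 0.004 μg/mL stocks), then FRET peptide (8 μM stock) and ATP (40 μM stock) added for 1 hr. Protease development for 1 hr cleaved unphosphorylated peptide; coumarin/fluorescein emission ratio reported phosphorylation.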
Chain of GSK3α (P49840 whole entry): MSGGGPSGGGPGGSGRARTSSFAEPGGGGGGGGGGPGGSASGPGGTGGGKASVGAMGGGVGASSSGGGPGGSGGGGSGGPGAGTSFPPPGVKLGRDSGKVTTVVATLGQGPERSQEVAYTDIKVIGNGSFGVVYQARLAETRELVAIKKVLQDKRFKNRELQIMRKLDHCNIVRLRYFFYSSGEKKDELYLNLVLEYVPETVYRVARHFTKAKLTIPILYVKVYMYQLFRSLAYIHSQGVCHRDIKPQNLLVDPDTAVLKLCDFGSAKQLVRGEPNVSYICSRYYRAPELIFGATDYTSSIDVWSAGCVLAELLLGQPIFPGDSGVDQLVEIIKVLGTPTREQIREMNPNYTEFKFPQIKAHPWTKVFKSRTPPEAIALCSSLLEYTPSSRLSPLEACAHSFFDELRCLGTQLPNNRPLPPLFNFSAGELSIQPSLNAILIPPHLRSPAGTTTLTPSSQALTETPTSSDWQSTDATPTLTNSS

For series [6], the system named is LPS-induced IL-8 release in d-U937 cells. The series is described as follows: LPS-induced IL-8 release in d-U937 cells. In kind it is cell-based. To be noted: Homo sapiens, dU937, read-out: LPS Induced Release of Cytokine in d-937 Cells IL-8 IC50. An outline of the steps:
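PMA-differentiated (100 ng/mL, 48–72 hr) U937 cells pre-incubated with compound 2 hr, then stimulated with LPS (0.1 μg/mL, E. coli O111:B4) for 4 hr. Supernatant TNFα and IL-8 measured by sandwich ELISA; inhibition versus vehicle control, REC50 from concentration-response curve.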

The subject of series [7] is d-U937 cells. As to the kind of experiment: Cell viability: MTT assay. In kind it is cell-based, human. To be noted: 1 μg/mL. The procedure, abridged: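 Differentiated U937 cells were exposed to compound at 1 or 10 μg/mL either 4 h in 5% FCS RPMI1640 or 24 h in 10% FCS RPMI1640, then given MTT for 1 h, DMSO-solubilised and read at 550 nm. Percent viability loss versus 0.5% DMSO vehicle; apparent gains appear negative.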
(In general: Formazan colour is commonly taken as a measure of viable cells.)

The subject of series [8] is LPS-induced TNFα release in d-U937 cells. As to the kind of experiment: LPS-induced TNFα release in d-U937 cells. In kind it is cell-based. The note with it: Homo sapiens, dU937, relative to 10 μg/mL BIRB796, read-out: LPS Induced Release of Cytokine in d-937 Cells TNFα REC50. The procedure, abridged:
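Sandwich ELISA of culture supernatant gives TNFα and IL-8 levels after a 4 hr challenge with LPS (0.1 μg/mL, E. coli O111:B4). Before stimulation, macrophage-like U937 cells, obtained by 48–72 hr in PMA at 100 ng/mL, sit with compound for 2 hr. Relative EC50 is derived from concentration-response data.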

Chain of cSrc (P12931 whole entry, looked up): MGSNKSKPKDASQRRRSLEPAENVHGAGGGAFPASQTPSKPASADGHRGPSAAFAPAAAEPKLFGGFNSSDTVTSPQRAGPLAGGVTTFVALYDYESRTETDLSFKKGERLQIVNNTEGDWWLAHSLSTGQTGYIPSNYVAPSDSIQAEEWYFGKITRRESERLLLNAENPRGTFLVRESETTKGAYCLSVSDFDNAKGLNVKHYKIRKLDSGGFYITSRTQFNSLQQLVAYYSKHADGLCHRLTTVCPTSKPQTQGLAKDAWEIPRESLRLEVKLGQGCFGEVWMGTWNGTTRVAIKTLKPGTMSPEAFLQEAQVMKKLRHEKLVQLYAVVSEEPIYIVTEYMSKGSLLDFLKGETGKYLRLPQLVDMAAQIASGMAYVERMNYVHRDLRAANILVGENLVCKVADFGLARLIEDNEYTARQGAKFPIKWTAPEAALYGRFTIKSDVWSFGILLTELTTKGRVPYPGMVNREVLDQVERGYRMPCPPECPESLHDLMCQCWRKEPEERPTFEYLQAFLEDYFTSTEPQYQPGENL
Chain of p38 MAPKα (Q16539 whole entry): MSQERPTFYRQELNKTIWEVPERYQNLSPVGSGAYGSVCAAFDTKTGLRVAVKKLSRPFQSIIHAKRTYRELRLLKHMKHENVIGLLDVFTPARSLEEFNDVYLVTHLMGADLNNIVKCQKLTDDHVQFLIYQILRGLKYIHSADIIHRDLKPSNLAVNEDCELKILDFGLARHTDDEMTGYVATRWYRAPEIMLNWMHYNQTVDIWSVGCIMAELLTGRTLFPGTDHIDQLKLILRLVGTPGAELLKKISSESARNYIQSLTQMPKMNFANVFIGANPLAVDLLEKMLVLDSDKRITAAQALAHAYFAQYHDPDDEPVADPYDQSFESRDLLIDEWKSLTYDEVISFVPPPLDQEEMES

With `COc1ccc(-n2nc(C(C)C)cc2NC(=O)Nc2ccc(Oc3ccnc(Nc4ccc5[nH]nc(C(=O)N(C)C)c5c4)n3)c3ccccc23)cc1` [Example 46, 5-((4-((4-(3-(3-isopropyl-1-(4-methoxyphenyl)-1H-pyrazol-5-yl)ureido)naphthalen-1-yl)oxy)pyrimidin-2-yl)amino)-N,N-dimethyl-1H-indazole-3-carboxamide], the IC50 is 0.0023 µM in series [1]; < 0.001 µM in series [2]; 0.012 µM in series [3]; 0.002 µM in series [4]; 0.908 µM in series [5]; 0.0211 µM in series [6]. In series [7], the “MTT Assay Cell viability at time point in d-U937 cells 4 h” value was “−ve (−ve and +ve indicate that the value is below and above respectively, the no significant effect threshold, defined as 30% inhibition at 1 μg/mL at the time point indicated.)”. In series [7], the “MTT Assay Cell viability at time point in d-U937 cells 24 h” value was “−ve (−ve and +ve indicate that the value is below and above respectively, the no significant effect threshold, defined as 30% inhibition at 1 μg/mL at the time point indicated.)”. Also, in series [8], the EC50 was determined as 0.0018 µM.
For the compound `Cc1ccc(-n2nc(C(C)(C)C)cc2NC(=O)Nc2ccc(Oc3ccnc(Nc4ccc5c(cnn5C)c4)n3)c3ccccc23)cc1` [Example 26, 1-(3-(tert-butyl)-1-(p-tolyl)-1H-pyrazol-5-yl)-3-(4-((2-((1-methyl-1H-indazol-5-yl)amino)pyrimidin-4-yl)oxy)naphthalen-1-yl)urea], the IC50 in series [1] is 0.0023 µM; in series [2], 0.012 µM; in series [3], 0.145 µM; in series [4] it was 0.18 µM; in series [5] it was > 15.7 µM; in series [6], 0.0022 µM. Besides, the “MTT Assay Cell viability at time point in d-U937 cells 4 h” value in series [7] is “−ve (−ve and +ve indicate that the value is below and above respectively, the no significant effect threshold, defined as 30% inhibition at 1 μg/mL at the time point indicated.)”. Further, in series [7], the “MTT Assay Cell viability at time point in d-U937 cells 24 h” value was “−ve (−ve and +ve indicate that the value is below and above respectively, the no significant effect threshold, defined as 30% inhibition at 1 μg/mL at the time point indicated.)”. Moreover, in series [8], the EC50 stood at 0.0022 µM.
With `Cc1ccc(-n2nc(C(C)(C)C)cc2NC(=O)Nc2ccc(Oc3ccnc(Nc4cc(Cl)c5[nH]ncc5c4)n3)c3ccccc23)cc1` [Example 28, 1-(3-(tert-butyl)-1-(p-tolyl)-1H-pyrazol-5-yl)-3-(4-((2-((7-chloro-1H-indazol-5-yl)amino)pyrimidin-4-yl)oxy)naphthalen-1-yl)urea], the IC50 in series [1] was 0.0034 µM; in series [2], 0.164 µM; in series [3] it was > 1.52 µM; in series [4] it was 0.711 µM; in series [5] it was > 1.52 µM; in series [6] it was 0.0017 µM. Further, the “MTT Assay Cell viability at time point in d-U937 cells 4 h” value in series [7] is “−ve (−ve and +ve indicate that the value is below and above respectively, the no significant effect threshold, defined as 30% inhibition at 1 μg/mL at the time point indicated.)”. Further, the “MTT Assay Cell viability at time point in d-U937 cells 24 h” value in series [7] is “−ve (−ve and +ve indicate that the value is below and above respectively, the no significant effect threshold, defined as 30% inhibition at 1 μg/mL at the time point indicated.)”. Moreover, the EC50 in series [8] was 0.0016 µM.
Regarding `Cc1n[nH]c2cc(Nc3nccc(Oc4ccc(NC(=O)Nc5cc(C(C)(C)C)nn5-c5ccc(OCCN6CCOCC6)cc5)c5ccccc45)n3)ccc12` [Example 71, 1-(3-(tert-butyl)-1-(4-(2-morpholinoethoxy)phenyl)-1H-pyrazol-5-yl)-3-(4-((2-((3-methyl-1H-indazol-6-yl)amino)pyrimidin-4-yl)oxy)naphthalen-1-yl)urea], the IC50 in series [1] was 0.0022 µM; in series [2], 0.012 µM; in series [3], 0.269 µM; in series [4] it was 0.009 µM; in series [5], 3.44 µM; in series [6], > 1.33 µM. Further, in series [7], the “MTT Assay Cell viability at time point in d-U937 cells 4 h” value was “−ve (−ve and +ve indicate that the value is below and above respectively, the no significant effect threshold, defined as 30% inhibition at 1 μg/mL at the time point indicated.)”. In series [7], the “MTT Assay Cell viability at time point in d-U937 cells 24 h” value is “−ve (−ve and +ve indicate that the value is below and above respectively, the no significant effect threshold, defined as 30% inhibition at 1 μg/mL at the time point indicated.)”. Besides, the EC50 in series [8] is 0.0111 µM.
Consider `COc1ccc(-n2nc(C(C)(C)C)cc2NC(=O)Nc2ccc(Oc3ccnc(Nc4ccc5c(cnn5C)c4)n3)c3ccccc23)cc1` [Example 41, 1-(3-(tert-butyl)-1-(4-methoxyphenyl)-1H-pyrazol-5-yl)-3-(4-((2-((1-methyl-1H-indazol-5-yl)amino)pyrimidin-4-yl)oxy)naphthalen-1-yl)urea], for which the IC50 is 0.0019 µM in series [1]; 0.016 µM in series [2]; 0.128 µM in series [3]; 0.081 µM in series [4]; > 15.3 µM in series [5]; 0.123 µM in series [6]. Moreover, the “MTT Assay Cell viability at time point in d-U937 cells 4 h” value in series [7] was “+ve (−ve and +ve indicate that the value is below and above respectively, the no significant effect threshold, defined as 30% inhibition at 1 μg/mL at the time point indicated.)”. Besides, the “MTT Assay Cell viability at time point in d-U937 cells 24 h” value in series [7] was “−ve (−ve and +ve indicate that the value is below and above respectively, the no significant effect threshold, defined as 30% inhibition at 1 μg/mL at the time point indicated.)”. In addition, the EC50 in series [8] was 0.0016 µM.
Regarding `Cc1ccc(-n2nc(C(C)(C)C)cc2NC(=O)Nc2ccc(Oc3ccnc(Nc4cc(C)c5[nH]ncc5c4)n3)c3ccccc23)cc1` [Example 27, 1-(3-(tert-butyl)-1-(p-tolyl)-1H-pyrazol-5-yl)-3-(4-((2-((7-methyl-1H-indazol-5-yl)amino)pyrimidin-4-yl)oxy)naphthalen-1-yl)urea], the IC50 in series [1] is 0.0024 µM; in series [2], 0.011 µM; in series [3] it was 0.263 µM; in series [4] it was 0.017 µM; in series [5] it was > 1.57 µM; in series [6] it was 0.0007 µM. For the same compound, the “MTT Assay Cell viability at time point in d-U937 cells 4 h” value in series [7] is “−ve (−ve and +ve indicate that the value is below and above respectively, the no significant effect threshold, defined as 30% inhibition at 1 μg/mL at the time point indicated.)”. The “MTT Assay Cell viability at time point in d-U937 cells 24 h” value in series [7] is “−ve (−ve and +ve indicate that the value is below and above respectively, the no significant effect threshold, defined as 30% inhibition at 1 μg/mL at the time point indicated.)”. Also, the EC50 in series [8] came out at 0.002 µM.
In the case of `Cc1cc(Nc2nccc(Oc3ccc(NC(=O)Nc4cc(C(C)(C)C)nn4-c4cccc(CN5CCCC5=O)c4)c4ccccc34)n2)cc2cn[nH]c12` [Example 10, 1-(3-(tert-Butyl)-1-(3-((2-oxopyrrolidin-1-yl)methyl)phenyl)-1H-pyrazol-5-yl)-3-(4-((2-((7-methyl-1H-indazol-5-yl)amino)pyrimidin-4-yl)oxy)naphthalen-1-yl)urea], the IC50 is 0.0039 µM in series [1]; < 0.001 µM in series [2]; 0.018 µM in series [3]; 0.002 µM in series [4]; 0.589 µM in series [5]; 0.0012 µM in series [6]. Besides, in series [7], the “MTT Assay Cell viability at time point in d-U937 cells 4 h” value was “−ve (−ve and +ve indicate that the value is below and above respectively, the no significant effect threshold, defined as 30% inhibition at 1 μg/mL at the time point indicated.)”. The “MTT Assay Cell viability at time point in d-U937 cells 24 h” value in series [7] was “−ve (−ve and +ve indicate that the value is below and above respectively, the no significant effect threshold, defined as 30% inhibition at 1 μg/mL at the time point indicated.)”. Also, the EC50 in series [8] stood at 0.0014 µM.

The term IC50 denotes the concentration at which inhibition is half-maximal.
